Experimental data taken from ChEMBL document CHEMBL1201862, “PubChem BioAssay data set” (2004).
The source made the active and inactive calls.

Tests used:
Cytochrome P450 2D6 = Cytochrome P450 2D6 (Homo sapiens, UniProt P10635);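 also: CYP2D6 member of a cytochrome P450 panel assay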
Streptokinase A = target: T1, Streptokinase A (Streptococcus pyogenes serotype M1, UniProt P10520); experiment: S. pyogenes streptokinase expression inhibitors, potency, dose response, plasminogen activation absorbance, OD405 (AID 1914); type: functional, Streptococcus pyogenes M1 GAS;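 also: secreted streptokinase activity via plasminogen activation per viability signal from cell pellet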
T1 sequence (P10520 whole entry): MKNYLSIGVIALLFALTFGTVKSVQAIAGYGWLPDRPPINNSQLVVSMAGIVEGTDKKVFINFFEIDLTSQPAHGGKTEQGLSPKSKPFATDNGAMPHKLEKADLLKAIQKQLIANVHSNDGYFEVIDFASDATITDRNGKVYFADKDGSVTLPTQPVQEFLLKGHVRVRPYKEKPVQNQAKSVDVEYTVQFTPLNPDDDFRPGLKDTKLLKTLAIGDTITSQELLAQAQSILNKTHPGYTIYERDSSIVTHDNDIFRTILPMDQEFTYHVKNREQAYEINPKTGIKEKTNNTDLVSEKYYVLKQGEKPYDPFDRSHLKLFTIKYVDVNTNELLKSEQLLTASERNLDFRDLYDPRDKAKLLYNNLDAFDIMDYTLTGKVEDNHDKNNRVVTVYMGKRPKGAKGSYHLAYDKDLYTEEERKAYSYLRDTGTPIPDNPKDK

Streptococcus = experiment: Group A Streptococcus viability loss, dose response, counter-screen for streptokinase expression inhibitor project, luminescence, BacTiterGlo (AID 1915); type: functional, organism-based;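 also: potency for reduction of bacterial viability or growth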
[1] = test system: Streptococcus sp. 'group A'; experiment: growth inhibition of control SK(-) GAS strain, dose response, counter-screen for streptokinase expression inhibitor project, luminescence, kanamycin, BacTiterGlo, confirmation (AID 1900); type: functional, organism-based
[2] = cytotoxicity toward NIH3T3 fibroblasts, dose response, counter-screen, cell-based, ATP luminescence, mouse fibroblasts (AID 2010); type: functional;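 also: cells exposed to compound for about 90 hours before reading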
[3] = inhibitors of intracellular T. cruzi replication, confirmation, NIH3T3 host cells, beta-gal luminescence (AID 2044); type: functional, cell-based;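 also: intracellular parasites grown in NIH/3T3 mouse fibroblasts as host cells; luminescent beta-galactosidase reporter signal from transgenic T. cruzi replicating inside host cells; inhibitors lower the luminescence signal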
[4] = target: T2, Corticotropin-releasing factor receptor 2/Corticotropin-releasing factor-binding protein (Homo sapiens, UniProt P24387+Q13324); experiment: activators of CRF receptor 2 with binding protein – uHTS hits, confirmation (AID 602473); type: functional; conditions: read-out: EC50_Mean
T2 sequence (Q13324 whole entry): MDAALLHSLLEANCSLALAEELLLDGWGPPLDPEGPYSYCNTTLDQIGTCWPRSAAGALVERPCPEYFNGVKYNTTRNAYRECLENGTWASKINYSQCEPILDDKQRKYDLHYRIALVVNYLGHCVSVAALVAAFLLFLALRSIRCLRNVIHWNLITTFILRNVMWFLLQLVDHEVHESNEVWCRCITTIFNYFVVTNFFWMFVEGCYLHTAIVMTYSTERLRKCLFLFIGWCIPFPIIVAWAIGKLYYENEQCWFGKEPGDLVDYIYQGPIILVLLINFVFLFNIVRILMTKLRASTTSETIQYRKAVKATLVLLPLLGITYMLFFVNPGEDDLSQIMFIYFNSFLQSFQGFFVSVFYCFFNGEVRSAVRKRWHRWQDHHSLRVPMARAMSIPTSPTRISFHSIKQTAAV
T2 sequence (P24387 whole entry): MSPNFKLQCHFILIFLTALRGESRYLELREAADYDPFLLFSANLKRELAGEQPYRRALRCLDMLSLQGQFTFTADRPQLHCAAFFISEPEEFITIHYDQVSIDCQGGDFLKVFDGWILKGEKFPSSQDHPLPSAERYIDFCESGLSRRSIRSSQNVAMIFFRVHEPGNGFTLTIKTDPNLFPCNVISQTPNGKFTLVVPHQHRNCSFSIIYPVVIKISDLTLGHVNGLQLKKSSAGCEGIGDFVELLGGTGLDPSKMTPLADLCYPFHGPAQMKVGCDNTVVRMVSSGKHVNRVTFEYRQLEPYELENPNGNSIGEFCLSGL

Cytochrome P450 2C19 = Cytochrome P450 2C19 (Homo sapiens, UniProt P33261); experiment: Cytochrome panel assay with activity outcomes. Panel member name: p450-cyp2c19 Compounds with AC50 equal or less than 10 uM are considered active; type: functional
Chain of Cytochrome P450 2C19 (P33261 whole entry): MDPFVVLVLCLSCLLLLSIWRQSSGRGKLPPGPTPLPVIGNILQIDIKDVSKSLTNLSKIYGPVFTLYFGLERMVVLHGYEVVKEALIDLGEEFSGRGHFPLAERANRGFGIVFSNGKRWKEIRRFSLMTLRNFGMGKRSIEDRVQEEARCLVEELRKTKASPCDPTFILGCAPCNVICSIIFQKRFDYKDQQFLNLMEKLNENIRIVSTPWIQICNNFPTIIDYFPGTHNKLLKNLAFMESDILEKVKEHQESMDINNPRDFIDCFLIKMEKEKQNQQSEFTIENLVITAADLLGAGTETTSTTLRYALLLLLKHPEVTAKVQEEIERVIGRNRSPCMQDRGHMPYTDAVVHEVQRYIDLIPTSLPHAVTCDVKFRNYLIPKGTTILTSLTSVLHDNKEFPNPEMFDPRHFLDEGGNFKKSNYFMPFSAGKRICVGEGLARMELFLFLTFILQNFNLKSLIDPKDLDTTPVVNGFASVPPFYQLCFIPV

Chain of Cytochrome P450 2D6 (P10635 whole entry): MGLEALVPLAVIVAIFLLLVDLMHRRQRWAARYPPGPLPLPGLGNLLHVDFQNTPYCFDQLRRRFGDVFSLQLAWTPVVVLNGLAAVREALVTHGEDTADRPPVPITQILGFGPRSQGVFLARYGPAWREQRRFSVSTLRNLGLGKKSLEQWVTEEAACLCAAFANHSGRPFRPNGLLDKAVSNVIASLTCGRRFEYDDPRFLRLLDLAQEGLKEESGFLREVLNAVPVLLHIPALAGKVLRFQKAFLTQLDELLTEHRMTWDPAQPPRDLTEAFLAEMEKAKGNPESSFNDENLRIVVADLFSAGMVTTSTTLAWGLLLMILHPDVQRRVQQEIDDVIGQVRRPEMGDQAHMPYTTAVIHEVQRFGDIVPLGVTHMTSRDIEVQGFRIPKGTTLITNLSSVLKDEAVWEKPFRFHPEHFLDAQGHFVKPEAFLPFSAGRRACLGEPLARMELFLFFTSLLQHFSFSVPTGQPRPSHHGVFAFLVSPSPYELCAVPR

CCn1c2ccccc2c2cc(NC(=O)C/C(C)=N/NC(=O)c3ccccc3N)ccc21
AC50 (Cytochrome P450 2D6): 25.1 µM (inconclusive)

Cc1ccc(-c2cc(C(F)F)nc(N3CCC(C)CC3)n2)cc1
EC50 (Streptokinase A): > 150 µM (not active)
EC50 (Streptococcus): 10 µM (active)
EC50 [1]: 6.63 µM (active)

Clc1ccc(-c2[nH]nc3c2CCC3)cc1Cl
EC50 (Streptokinase A): > 150 µM (not active)
EC50 (Streptococcus): 13.9 µM (active)
EC50 [1]: 8.42 µM (active)

COc1ccc(CN2CCCC(C(=O)c3ccc(Cl)cc3)C2)cc1Cn1cncn1 (stereo not given)
EC50 [2]: > 30 µM (not active)
EC50 [3]: 0.508 µM (active)

O=C(COc1ccccc1C(=O)NCc1ccncc1)Nc1ccc(Br)cc1
EC50 [2]: > 60 µM (not active)
EC50 [3]: 2.15 µM (active)

COc1ccccc1N(CC(=O)N1CCCCC1C)S(=O)(=O)c1ccc(Cl)cc1 (stereo not given)
EC50 [4]: 5.95 µM (active)

O=C(O)Cc1ccc2ocnc2c1
AC50 (Cytochrome P450 2C19): inconclusive

CC(=O)N(CC(=O)O)c1ccccc1C(=O)O
AC50 (Cytochrome P450 2C19; read-out: AC50): 0.0562 µM (inconclusive)

COc1ncc2nc(C)c(=O)n(Cc3cccs3)c2n1
AC50 (Cytochrome P450 2D6): 25.1 µM (inconclusive)

CN1CCN(c2ccc(S(=O)(=O)N3CCCCC3)cc2NC(=O)COc2ccc(F)cc2)CC1
EC50 [2]: > 60 µM (not active)
EC50 [3]: 0.538 µM (active)

COc1ccccc1CNc1nc(-c2ccoc2)nc2ccccc12
AC50 (Cytochrome P450 2D6): 6.31 µM (active)

OCC1(Cc2ccc(Cl)cc2)CCN(Cc2ccc(Oc3ncccn3)cc2)CC1
EC50 [2]: > 60 µM (inconclusive)
EC50 [3]: 0.966 µM (active)

CCC(C)Sc1cc(-c2nc3ccc(C)cn3c2NCc2ccccc2)ccc1OC (stereo not given)
EC50 (Streptokinase A): 2.75 µM (active)
EC50 (Streptococcus): 9.32 µM (active)
EC50 [1]: 2.32 µM (active)

Cc1ccc([N+](=O)[O-])cc1NC(=O)CN(C1CCCCC1)S(=O)(=O)c1ccc(Cl)cc1
EC50 [2]: > 60 µM (not active)
EC50 [3]: 3.08 µM (active)

O=c1c2ccccc2c(-c2ccccc2)nn1-c1ccc(Cl)c(Cl)c1
AC50 (Cytochrome P450 2D6): 10 µM (inconclusive)

COc1ccccc1NC(=O)C(=O)NNC(=O)COc1ccc2ccccc2c1
EC50 (Streptokinase A): > 150 µM (not active)
EC50 (Streptococcus): 17.7 µM (active)
EC50 [1]: 4.14 µM (active)

CN(CC(=O)Nc1ccc(S(=O)(=O)N2CCCC2)cc1)Cc1ccc(Cl)c(Cl)c1
EC50 [2]: > 60 µM (not active)
EC50 [3]: 2.04 µM (active)

Cc1ccc(OCc2ccc(C(=O)Nc3c(C)nn(Cc4c(F)c(F)c(F)c(F)c4F)c3C)o2)c([N+](=O)[O-])c1
EC50 (Streptokinase A): 25.6 µM (inconclusive)
EC50 (Streptococcus): > 150 µM (not active)
EC50 [1]: 25.3 µM (active)

CN(C)CCCNc1oc(-c2ccccc2Cl)nc1S(=O)(=O)c1ccc(F)cc1
EC50 [2]: 24.1 µM (active)
EC50 [3]: 0.135 µM (active)

CC(=O)N(CCCN(C)C)c1nc2ccc(C)cc2s1
EC50 [2]: > 60 µM (not active)
EC50 [3]: 0.236 µM (active)

O=C(NCc1ccccn1)Nc1ccc(F)c(Cl)c1
EC50 (Streptokinase A): > 150 µM (not active)
EC50 (Streptococcus): > 150 µM (not active)
EC50 [1]: > 150 µM (not active)

CCC(C)(C)n1nnnc1C(c1cccs1)N1CCN(c2nc3ccccc3s2)CC1 (stereo not given)
EC50 [2]: 8.58 µM (active)
EC50 [3]: 1.96 µM (active)

Cc1occc1C(=O)NNC(=O)c1ccc(F)cc1
AC50 (Cytochrome P450 2C19): inconclusive

CCC(=O)Nc1ccc(-c2nnc(-c3ccccc3)o2)cc1
EC50 [2]: > 60 µM (not active)
EC50 [3]: 1.55 µM (active)

Cc1cnc(CNc2ncnc3ccc(-c4ccc5c(c4)OCO5)cc23)cn1
AC50 (Cytochrome P450 2C19; read-out: AC50): 15.8 µM (inconclusive)

CN(CC1CCCO1)S(=O)(=O)c1ccc(C(=O)Nc2nnc(-c3ccccc3)o2)cc1 (stereo not given)
EC50 (Streptococcus): 12.2 µM (active)
EC50 [1]: 4.14 µM (active)

CNc1nc(N(C)C)nc(N(C)C)n1 [PENTAMETHYL MELAMINE]
EC50 [4]: > 53 µM (inactive)
